In US5674909A, “Derivatives of 2-amino-1,2,3,4-tetrahydronaphthalene active on the cardiovascular system” (Zambon Group, priority 1994, dated 1997):

How the values were obtained:
[1] = molecular target: T1, D2 -like (Rabbit Ear Artery) (Oryctolagus cuniculus, UniProt G1T1Q0); test: D2-like activity in the Rabbit Ear Artery (REA) test; parameters: species or system New Zealand rabbit; conditions: agonist activity at the peak of the effect; electrically stimulated
T1 construct: the central ear artery was dissected into 3 mm long rings; from tissue; host or cells: rabbit central ear artery rings (male New Zealand rabbits), electrically stimulated
Method: Arterial rings were prepared according to the method described by Steinsland et al., Science, 1978, 443, 199, modified as follows. Male New Zealand rabbits weighing 2.5-3 Kg were sacrificed by intravenous injection of an excess of pentobarbital sodium and exsanguinated. The two ears were taken away and the central ear artery was dissected into 3 mm long rings.
These preparations were set up in a 25 ml organ bath containing Krebs solution (mM/l): NaCl 118, KCl 4.7, CaCl2 2.5, MgSO4 1.2, NaHCO3 25, KH2 PO4 1.2, glucose 11.1, equilibrated with 95% 02 -5% CO2 and maintained at 35°±1° C.
Krebs solution was medicated with EDTA (10 μM) to prevent cathecolamine oxydation, desipramine (0.1 μM) and corticosterone (30 μM), to block neuronal and extraneuronal cathecolamine uptake. The preparations were electrically stimulated (10 Hz, 1 msec, 40-80 mA, 500 msec duration) at 5 minutes intervals.
(§1) The tested compounds were cumulatively administered.
(§2) Ref. A was used as reference substance.
(§3) Agonist activity evaluated at the peak of the effect and expressed as potency ratio (EC50 of Ref. A/EC50 of tested compound) is reported in table 2.

[2] = test system: D1 -like (Rabbit Splenic Artery); test: D1-like activity in the Rabbit Splenic Artery (RSA) test; conditions: agonist activity at the peak of the effect; contracted with U46619 0.1 μM
Method: Arterial rings were prepared according to Semeraro et al., Naunyn. Schmied. Arch. Pharmacol., 1990, 342, 539.
The arterial preparations were contracted with U46619 (9,11-di-deoxy-11α,9α-epoxy-methanoprostaglandin F2α) at the submaximal concentration 0.1 μM.
as §1, §2, §3

T1 sequence (G1T1Q0 1-443): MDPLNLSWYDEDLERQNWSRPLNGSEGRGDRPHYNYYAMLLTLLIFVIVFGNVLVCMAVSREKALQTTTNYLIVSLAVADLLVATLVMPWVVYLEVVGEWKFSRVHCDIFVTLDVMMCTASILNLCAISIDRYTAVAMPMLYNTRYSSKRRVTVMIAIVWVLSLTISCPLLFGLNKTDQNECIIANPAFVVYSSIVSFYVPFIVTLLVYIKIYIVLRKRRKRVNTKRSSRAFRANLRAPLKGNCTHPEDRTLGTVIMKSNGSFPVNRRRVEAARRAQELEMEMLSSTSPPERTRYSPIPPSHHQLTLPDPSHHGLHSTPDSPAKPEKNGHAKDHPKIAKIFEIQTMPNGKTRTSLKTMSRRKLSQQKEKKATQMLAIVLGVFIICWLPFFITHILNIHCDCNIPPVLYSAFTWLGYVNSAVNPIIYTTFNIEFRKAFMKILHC

Br.Br.CCCN(CCCCCCNCCc1ccc(O)c(Cl)c1)[C@H]1CCc2c(ccc(O)c2O)C1 [Compound 11, (S)-N-propyl-N-[6-[2-(3-chloro-4-hydroxyphenyl)ethylamino]hexyl]-5,6-dihydroxy-1,2,3,4-tetrahydro-2-naphthylamine dihydrobromide]
D2 -like (REA) potency ratio (EC50 of Ref. A/EC50 of tested compound) [1]: 4
D1 -like (RSA) potency ratio (EC50 of Ref. A/EC50 of tested compound) [2]: 25

Br.Br.CCCN(CCCCCCNCCc1ccc(O)c([N+](=O)[O-])c1)[C@H]1CCc2c(ccc(O)c2O)C1 [Compound 12, (S)-N-propyl-N-[6-[2-(3-nitro-4-hydroxyphenyl)ethylamino]hexyl]-5,6-dihydroxy-1,2,3,4-tetrahydro-2-naphthylamine dihydrobromide]
D1 -like (RSA) potency ratio (EC50 of Ref. A/EC50 of tested compound) [2]: 5

Br.Br.CCCN(CCCCCCNCCc1ccc(O)c(C)c1)[C@H]1CCc2c(ccc(O)c2O)C1 [Compound 14, (S)-N-propyl-N-[6-[2-(3-methyl-4-hydroxyphenyl)ethylamino]hexyl]-5,6-dihydroxy-1,2,3,4-tetrahydro-2-naphthylamine dihydrobromide]
D2 -like (REA) potency ratio (EC50 of Ref. A/EC50 of tested compound) [1]: 3
D1 -like (RSA) potency ratio (EC50 of Ref. A/EC50 of tested compound) [2]: 33

Br.Br.CCCN(CCCCCCNCCc1cc(O)c(C)c(O)c1)[C@H]1CCc2c(ccc(O)c2O)C1 [Compound 17, (S)-N-propyl-N-[6-[2-(3,5-dihydroxy-4-methylphenyl)ethylamino]hexyl]-5,6-dihydroxy-1,2,3,4-tetrahydro-2-naphthylamine dihydrobromide]
D2 -like (REA) potency ratio (EC50 of Ref. A/EC50 of tested compound) [1]: 25
D1 -like (RSA) potency ratio (EC50 of Ref. A/EC50 of tested compound) [2]: 12

Br.Br.CCCN(CCCCCCNCCc1ccc2[nH]c(=O)sc2c1)[C@H]1CCc2c(ccc(O)c2O)C1 [Compound 18, (S)-N-propyl-N-[6-[2-(2-oxo-3H-1,3-benzothiazol-6-yl)ethylamino]hexyl]-5,6-dihydroxy-1,2,3,4-tetrahydro-2-naphthylamine dihydrobromide]
D2 -like (REA) potency ratio (EC50 of Ref. A/EC50 of tested compound) [1]: 5
D1 -like (RSA) potency ratio (EC50 of Ref. A/EC50 of tested compound) [2]: 50

Br.Br.CCCN(CCCCCCNCCc1ccc2sc(=O)[nH]c2c1)[C@H]1CCc2c(ccc(O)c2O)C1 [Compound 19, (S)-N-propyl-N-[6-[2-(2-oxo-3H-1,3-benzothiazol-5-yl)ethylamino]hexyl]-5,6-dihydroxy-1,2,3,4-tetrahydro-2-naphthylamine dihydrobromide]
D2 -like (REA) potency ratio (EC50 of Ref. A/EC50 of tested compound) [1]: 4
D1 -like (RSA) potency ratio (EC50 of Ref. A/EC50 of tested compound) [2]: 11

Br.Br.CCCN(CCCCCCNCCc1cc(O)cc(Cl)c1)[C@H]1CCc2c(ccc(O)c2O)C1 [Compound 21, (S)-N-propyl-N-[6-[2-(3-chloro-5-hydroxyphenyl)ethylamino]hexyl]-5,6-dihydroxy-1,2,3,4-tetrahydro-2-naphthylamine dihydrobromide]
D2 -like (REA) potency ratio (EC50 of Ref. A/EC50 of tested compound) [1]: 1.7
D1 -like (RSA) potency ratio (EC50 of Ref. A/EC50 of tested compound) [2]: 3

CCCN(CCCCCCNCCc1ccc(O)c(OC)c1)[C@H]1CCc2c(ccc(O)c2O)C1.Cl.Cl [Compound 26, (S)-N-propyl-N-[6-[2-(3-methoxy-4-hydroxyphenyl)ethylamino]hexyl]-5,6-dihydroxy-1,2,3,4-tetrahydro-2-naphthylamine dihydrochloride]
D2 -like (REA) potency ratio (EC50 of Ref. A/EC50 of tested compound) [1]: 10
D1 -like (RSA) potency ratio (EC50 of Ref. A/EC50 of tested compound) [2]: 33

CCCN(CCCCCCNCCc1ccc(OC)c(O)c1)[C@H]1CCc2c(ccc(O)c2O)C1.Cl.Cl [Compound 27, (S)-N-propyl-N-[6-[2-(3-hydroxy-4-methoxyphenyl)ethylamino]hexyl]-5,6-dihydroxy-1,2,3,4-tetrahydro-2-naphthylamine dihydrochloride]
D2 -like (REA) potency ratio (EC50 of Ref. A/EC50 of tested compound) [1]: 4
D1 -like (RSA) potency ratio (EC50 of Ref. A/EC50 of tested compound) [2]: 25

CCCN(CCCCCCNCCc1ccc(O)c(N)c1)[C@H]1CCc2c(ccc(O)c2O)C1.Cl.Cl.Cl [Compound 29, (S)-N-propyl-N-[6-[2-(3-amino-4-hydroxyphenyl)ethylamino]hexyl]-5,6-dihydroxy-1,2,3,4-tetrahydro-2-naphthylamine trihydrochloride]
D2 -like (REA) potency ratio (EC50 of Ref. A/EC50 of tested compound) [1]: 1.7
D1 -like (RSA) potency ratio (EC50 of Ref. A/EC50 of tested compound) [2]: 50

CCCN(CCCCCCNCCc1ccc(NS(C)(=O)=O)cc1)[C@H]1CCc2c(ccc(O)c2O)C1.Cl.Cl [Compound 31, (S)-N-propyl-N-[6-[2-(4-methylsulphonylaminophenyl)ethylamino]hexyl]-5,6-dihydroxy-1,2,3,4-tetrahydro-2-naphthylamine dihydrochloride]
D2 -like (REA) potency ratio (EC50 of Ref. A/EC50 of tested compound) [1]: 5
D1 -like (RSA) potency ratio (EC50 of Ref. A/EC50 of tested compound) [2]: 100

CCCN(CCCCCCNCCc1ccc(NC(N)=O)cc1)[C@H]1CCc2c(ccc(O)c2O)C1.Cl.Cl [Compound 32, (S)-N-propyl-N-[6-[2-(4-aminocarbonylaminophenyl)ethylamino]hexyl]-5,6-dihydroxy-1,2,3,4-tetrahydro-2-naphthylamine dihydrochloride]
D2 -like (REA) potency ratio (EC50 of Ref. A/EC50 of tested compound) [1]: 10
D1 -like (RSA) potency ratio (EC50 of Ref. A/EC50 of tested compound) [2]: 33

CCCN(CCCCCCNCCc1ccc(NC(C)=O)cc1)[C@H]1CCc2c(ccc(O)c2O)C1.Cl.Cl [Compound 33, (S)-N-propyl-N-[6-[2-(4-acetylaminophenyl)ethylamino]hexyl]-5,6-dihydroxy-1,2,3,4-tetrahydro-2-naphthylamine dihydrochloride]
D2 -like (REA) potency ratio (EC50 of Ref. A/EC50 of tested compound) [1]: 5
D1 -like (RSA) potency ratio (EC50 of Ref. A/EC50 of tested compound) [2]: 5

CCCN(CCCCCCNCCc1ccc(C(=O)OC)cc1)[C@H]1CCc2c(ccc(O)c2O)C1.Cl.Cl [Compound 35, (S)-N-propyl-N-[6-[2-(4-methoxycarbonylphenyl)ethylamino]hexyl]-5,6-dihydroxy-1,2,3,4-tetrahydro-2-naphthylamine dihydrochloride]
D2 -like (REA) potency ratio (EC50 of Ref. A/EC50 of tested compound) [1]: 0.4
D1 -like (RSA) potency ratio (EC50 of Ref. A/EC50 of tested compound) [2]: 2

CCCN(CCCCCCNCCc1ccc(CO)cc1)[C@H]1CCc2c(ccc(O)c2O)C1.Cl.Cl [Compound 36, (S)-N-propyl-N-[6-[2-(4-hydroxymethylphenyl)ethylamino]hexyl]-5,6-dihydroxy-1,2,3,4-tetrahydro-2-naphthylamine dihydrochloride]
D2 -like (REA) potency ratio (EC50 of Ref. A/EC50 of tested compound) [1]: 12
D1 -like (RSA) potency ratio (EC50 of Ref. A/EC50 of tested compound) [2]: 4.5

CCCN(CCCCCCNCCc1ccc(C(N)=O)cc1)[C@H]1CCc2c(ccc(O)c2O)C1.Cl.Cl [Compound 37, (S)-N-propyl-N-[6-[2-(4-carbamoylphenyl)ethylamino]hexyl]-5,6-dihydroxy-1,2,3,4-tetrahydro-2-naphthylamine dihydrochloride]
D2 -like (REA) potency ratio (EC50 of Ref. A/EC50 of tested compound) [1]: 5
D1 -like (RSA) potency ratio (EC50 of Ref. A/EC50 of tested compound) [2]: 5

CCCN(CCCCCCNCCc1ccc(S(=O)(=O)O)cc1)[C@H]1CCc2c(ccc(O)c2O)C1.Cl.Cl [Compound 39, (S)-N-propyl-N-[6-[2-(4-sulphophenyl)ethylamino]hexyl]-5,6-dihydroxy-1,2,3,4-tetrahydro-2-naphthylamine dihydrochloride]
D2 -like (REA) potency ratio (EC50 of Ref. A/EC50 of tested compound) [1]: 3
D1 -like (RSA) potency ratio (EC50 of Ref. A/EC50 of tested compound) [2]: 2.5

CCCN(CCCCCCNCCc1ccc2nc(N)sc2c1)[C@H]1CCc2c(ccc(O)c2O)C1.Cl.Cl.Cl [Compound 40, (S)-N-propyl-N-[6-[2-(2-amino-1,3-benzothiazol-6-yl)ethylamino]hexyl]-5,6-dihydroxy-1,2,3,4-tetrahydro-2-naphthylamine trihydrochloride]
D2 -like (REA) potency ratio (EC50 of Ref. A/EC50 of tested compound) [1]: 3
D1 -like (RSA) potency ratio (EC50 of Ref. A/EC50 of tested compound) [2]: 14
